In article PMC10574351, “First-Row Transition Metal Complexes Incorporating the 2-(2′-pyridyl)quinoxaline Ligand (pqx), as Potent Inflammatory Mediators: Cytotoxic Properties and Biological Activities against the Platelet-Activating Factor (PAF) and Thrombin” (Molecules, 2023):
Blank lines part the entries; values can stand above or below the molecule they belong to.

Key:
[1] = Stability in DMSO monitored by UV-Vis spectroscopy; assay type: physicochemical; details: ambient temperature, monitored ~1 to 2 h
Procedure: The UV-Vis spectra of all complexes were recorded in DMSO at ambient temperature, immediately after dissolution, as this is the medium used for the biological assays. The UV-Vis spectrum of 1 will be included in a publication that follows. The relevant spectra of complexes 2, 3, 5 and 6 are shown below in Figure 6 and Figure 7, respectively, while that of complex 7 (concentrated solution) is included in Figure S9.
The UV-Vis absorption spectra of the light-yellow solutions of complexes 2, 3, 5 and 6 were monitored over a period of ~1 to 2 h (not shown) to ensure stability for the relevant biological assays. […] The electronic spectra of all complexes display four rather identical absorption bands in the range of 259–334 nm that can be attributed to π → π* and n → π* or charge-transfer transitions. These bands display medium to weak molar extinction coefficients and are in the expected region for similar complexes. For the cobalt(II) complex 2, the very low intensity and rather broad absorption, centered at ~680 nm can be attributed to d-d transitions. Also for the copper(II) complex 3, the broad absorption band in the range of 660–870 nm, is attributed to d-d transition.

[2] = tested on: human lymphocytes cultures; test: Toxicity in healthy cells (human lymphocytes cultures); assay type: cell-based
[3] = tested on: lyso-PAF:acetyl-CoA acetyltransferase (lyso-PAF-AT); test: Lyso PAF-AT activity assay on leukocyte homogenate; assay type: biochemical; details: rabbit leukocyte homogenate; Figure 9
Procedure: The experiment on the inhibitory effect of each compound of interest against the washed rabbit platelets (WRPs) aggregation was carried out as per the already described method. The platelets were from male New Zealand white rabbits (about 20), individually housed in stainless steel cages in an air-conditioned room (19 ± 1 °C, 55 ± 5% humidity on a 12/12 h artificial light/dark cycle). Blood samples were drawn from the main ear artery. Microliters of PAF in a final concentration of about 10^–10 M were added to the cuvette of the aggregometer, and the height of the platelet aggregation was monitored. […] Dithiothreitol-insensitive PAF choline phosphotransferase, lyso-PAF:acetyl-CoA acetyltransferase and PAF-acetylhydrolase activity assays were performed on the homogenates of rabbit leukocytes while the activity of lipoprotein-associated phospholipase A2 was assessed on plasma as previously described. […] All results were expressed as mean ± standard deviation (SD). […] Data were analyzed using a statistical software package (SPSS for Windows, 16.0, 2007, SPSS Inc., Chicago, IL, USA) and Microsoft Excel 2007. […]
The extraction, purification, and determination of the produced in each assay PAF was carried out as previously described. […] PAF bands were scrapped off, and extracted and the amount of PAF was determined by the washed rabbit platelet aggregation assay. […]

[4] = target: T1, Lipoprotein-associated phospholipase A2 (Lp-PLA2) (Oryctolagus cuniculus, UniProt G1SE06); test: Plasma PAF-AH (LpPLA2) activity assay; assay type: biochemical, rabbit; details: in increased concentrations, Figure 10
T1 construct: from tissue; host or cells: rabbit plasma
T1 sequence (G1SE06 22-423): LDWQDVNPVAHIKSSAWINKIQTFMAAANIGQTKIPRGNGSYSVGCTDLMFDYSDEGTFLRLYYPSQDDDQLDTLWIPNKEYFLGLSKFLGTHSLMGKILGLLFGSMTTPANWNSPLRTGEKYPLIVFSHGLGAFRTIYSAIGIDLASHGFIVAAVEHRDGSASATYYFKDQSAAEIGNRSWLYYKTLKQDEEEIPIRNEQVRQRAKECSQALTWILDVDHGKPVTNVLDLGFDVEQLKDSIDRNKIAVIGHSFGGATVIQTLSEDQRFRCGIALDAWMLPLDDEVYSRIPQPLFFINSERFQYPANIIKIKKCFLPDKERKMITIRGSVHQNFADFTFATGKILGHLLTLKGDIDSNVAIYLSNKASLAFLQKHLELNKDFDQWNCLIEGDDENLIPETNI
Procedure: The experiment on the inhibitory effect of each compound of interest against the washed rabbit platelets (WRPs) aggregation was carried out as per the already described method. The platelets were from male New Zealand white rabbits (about 20), individually housed in stainless steel cages in an air-conditioned room (19 ± 1 °C, 55 ± 5% humidity on a 12/12 h artificial light/dark cycle). Blood samples were drawn from the main ear artery. Microliters of PAF in a final concentration of about 10^–10 M were added to the cuvette of the aggregometer, and the height of the platelet aggregation was monitored. […] Dithiothreitol-insensitive PAF choline phosphotransferase, lyso-PAF:acetyl-CoA acetyltransferase and PAF-acetylhydrolase activity assays were performed on the homogenates of rabbit leukocytes while the activity of lipoprotein-associated phospholipase A2 was assessed on plasma as previously described. […] All results were expressed as mean ± standard deviation (SD). […] Data were analyzed using a statistical software package (SPSS for Windows, 16.0, 2007, SPSS Inc., Chicago, IL, USA) and Microsoft Excel 2007.
Plasma PAF-AH was determined in rabbit plasma by the trichloroacetic acid precipitation method using [3H] […] The [3H]-acetate released into the aqueous phase was measured on a liquid scintillation counter. […]

Molecule: CS(C)=O.[Cl][Cu][Cl].c1ccc(-c2cnc3ccccc3n2)nc1 [Complex 3, [Cu(pqx)Cl2(DMSO)]]
stability of UV-Vis absorption spectra in DMSO [1]: not modified over time

Molecule: [Cl][Zn][Cl].c1ccc(-c2cnc3ccccc3n2)nc1 [Complex 4, [Zn(pqx)Cl2]]
toxicity in healthy cells [2]: almost inactive (non-toxic)

Molecule: [Co(pqx)Cl2(DMF)] [Complex 2]
stability of UV-Vis absorption spectra in DMSO [1]: not modified over time

Molecule: [Fe(pqx)Cl2]2 [Complex 6]
stability of UV-Vis absorption spectra in DMSO [1]: not modified over time

Molecule: [Mn(pqx)(H2O)2Cl2]2 [Complex 5]
stability of UV-Vis absorption spectra in DMSO [1]: not modified over time

Molecule: [Ni(pqx)Cl2]2 [Complex 7]
inhibition of the specific activity of lyso-PAF-AT [3]: inhibit in a dose-dependent way
inhibition of the specific activity of Lp-PLA2 [4]: disables the enzymatic activity

inhibition of the specific activity of lyso-PAF-AT [3]: inhibit in a dose-dependent way
Molecule: mer-[Cr(pqx)Cl3(H2O)] [Complex 1]
toxicity in healthy cells [2]: almost inactive (non-toxic)
